Data reported in US7834248B2, “Plant seed comprising vernolic acid” (Commonwealth Scientific and Industrial Research Organisation, priority 1997, dated 2010).
One block for each compound: values may come before it.

Legend:
[1] = molecular target: T1, C. alpina linoleate Δ12-acetylenase (Crepis alpina, UniProt O81931); test: Microsomal linoleate Δ12-acetylenase assay, effect of treatments; type: biochemical
T1 construct: from tissue; host or cells: microsomes from cotyledons of developing Crepis alpina seeds
Method: (§1) Preparations of membranes from Crepis alpina and Crepis palaestina were obtained as follows. Crepis alpina and Crepis palaestina plants were grown in green houses and seeds were harvested at the mid-stage of development (17-20 days after flowering). Cotyledons were squeezed out from their seed coats and homogenized with mortar and pestle in 0.1M phosphate buffer, pH 7.2 containing 0.33M sucrose, 4 mM NADH, 2 mM CoASH, 1 mg of bovine serum albumin/ml and 4,000 units of catalase/ml. The homogenate was centrifuged for 10 min at 18,000×g and the resulting supernatant centrifuged for 60 min at 150,000×g to obtain a microsome pellet.
(§2) […]. When NADPH was used as coreductant, the membranes were resuspended in homogenization buffer comprising NADPH in place of NADH.
(§3) Biochemical characterization of the microsomal linoleate Δ12-epoxygenase derived from Euphorbia lagascae and Crepis palaestina was carried out and data obtained were compared to the biochemical characteristics of oleate Δ12-desaturase and linoleate Δ12-acetylenase enzymes derived from microsomal preparations of Crepis alpina (Table 4).

[2] = tested on: C. palaestina linoleate Δ12-epoxygenase; test: Microsomal linoleate Δ12-epoxygenase assay, effect of treatments; type: biochemical, Crepis palaestina; details: microsomal membranes; control = minus NADPH plus NADH
Method: as §1, §2, §3

[3] = tested on: E. lagascae linoleate Δ12-epoxygenase; test: Membrane linoleate Δ12-epoxygenase assay, effect of treatments; type: biochemical, Euphorbia lagascae; details: for Enzyme Activity (% of control), E. lagascae linoleate Δ12-epoxygenase: membranes, control = minus NADH plus NADPH
Method: Preparations of membranes from Euphorbia lagascae and assays of their epoxygenase activities were performed as described by Bafor et al. (1993) with incubations containing NADPH, unless otherwise indicated in Table 4. Lipid extraction, separation and methylation as well as GLC and radio-GLC separations were performed essentially as described by Kohn et al. (1994) and Bafor et al. (1993).
as §3

[4] = tested on: C. alpina oleate Δ12-desaturase; test: Microsomal oleate Δ12-desaturase assay, effect of treatments; type: biochemical, Crepis alpina; details: for Enzyme Activity (% of control), C. alpina oleate Δ12-desaturase: microsomal membranes, control = minus NADPH plus NADH
Method: as §1, §2, §3

[5] = tested on: developing linseed cotyledons; test: Incorporation of 14C-labelled oleic acid and vernolic acid into the lipids of developing linseed cotyledons
Method: 0.1 M phosphate buffer pH 7.2 for 90 or 270 min before extraction. An aliquot of the lipids in the chloroform phase was methylated and separated on silica gel TLC plates in n-hexane/diethylether/acetic acid (85:15:1). The rest of the lipids in the chloroform phase of each sample were applied on two separate silica gel TLC plates and the plates were developed in chloroform/methanol/acetic acid/water (85:15:10:3.5 by vol) for polar lipids separation and in n-hexane/diethylether/acetic acid (60:40:1.5) for neutral lipid separation. Lipid areas with migration corresponding to authentic standards were removed and radioactivity in each lipid were quantified by liquid scintillation counting.

T1 sequence (O81931 whole entry, stated change not applied): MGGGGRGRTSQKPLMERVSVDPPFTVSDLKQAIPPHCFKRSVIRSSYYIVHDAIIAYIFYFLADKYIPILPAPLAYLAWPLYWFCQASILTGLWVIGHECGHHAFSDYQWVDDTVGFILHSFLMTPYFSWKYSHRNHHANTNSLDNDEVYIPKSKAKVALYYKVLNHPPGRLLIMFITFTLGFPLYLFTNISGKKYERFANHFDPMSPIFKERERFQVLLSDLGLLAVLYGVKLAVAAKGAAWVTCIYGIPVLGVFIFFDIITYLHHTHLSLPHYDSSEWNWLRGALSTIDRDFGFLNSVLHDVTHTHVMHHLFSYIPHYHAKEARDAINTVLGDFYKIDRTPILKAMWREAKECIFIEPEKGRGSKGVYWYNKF

Compound: [C-]#[O+] [Carbon monoxide]
Inhibition of linoleate Δ12-acetylenase (in words) ([1]; Crepis alpina microsomes): not by carbon monoxide
Enzyme Activity (% of control), C. palaestina linoleate Δ12-epoxygenase [2]: 88 % of control
Inhibition of linoleate Δ12-epoxygenase (in words) ([3]; Euphorbia lagascae membranes): is inhibited
Enzyme Activity (% of control), E. lagascae linoleate Δ12-epoxygenase [3]: 3 % of control
Inhibition of oleate Δ12-desaturase (in words) ([4]; Crepis alpina microsomes): not by carbon monoxide
Enzyme Activity (% of control), C. alpina oleate Δ12-desaturase [4]: 85 % of control

Enzyme Activity (% of control), E. lagascae linoleate Δ12-epoxygenase [3]: 11 % of control
Compound: NC(=O)C1=CN([C@@H]2O[C@H](COP(=O)(O)OP(=O)(O)OC[C@H]3O[C@@H](n4cnc5c(N)ncnc54)[C@H](O)[C@@H]3O)[C@@H](O)[C@H]2O)C=CC1 [NADH]

Activity of chloroform phase residing in phosphatidylcholine ([5]; after 30 min): About 22%
Activity of chloroform phase residing in triacylglycerols ([5]; after 30 min): About 5%
Added radioactivity taken up by the cotyledons and recovered as lipophilic substances (chloroform phase) ([5]; after the 30 min pulse labeling, virtually unchanged during further 270 min): Somewhat more than half
Activity of chloroform phase residing in phosphatidylcholine ([5]; at 300 min of incubation): about 11%
Activity of chloroform phase residing in triacylglycerols ([5]; at 300 min of incubation): 18%
Activity contained in diacylglycerols ([5]; remained rather constant over the incubation periods): ~19%
Compound: CCCCCCCC/C=C\CCCCCCCC(=O)O [[^14C]oleic acid, oleic acid]

Compound: NC(=O)C1=CN([C@@H]2O[C@H](COP(=O)(O)OP(=O)(O)OC[C@H]3O[C@@H](n4cnc5c(N)ncnc54)[C@H](OP(=O)(O)O)[C@@H]3O)[C@@H](O)[C@H]2O)C=CC1 [NADPH]
Enzyme Activity (% of control), C. alpina linoleate Δ12-acetylenase ([1]; microsomal membranes, control = minus NADPH plus NADH): 73 % of control
Enzyme Activity (% of control), C. palaestina linoleate Δ12-epoxygenase [2]: 94 % of control
Enzyme Activity (% of control), C. alpina oleate Δ12-desaturase [4]: 95 % of control

Compound: CCCCCC1OC1CC=CCCCCCCCC(=O)O (centres unmarked) [[^14C]vernolic acid, 12,13-epoxy-9-octadecenoic acid]
Metabolism of the epoxy group by linseed cotyledons (in words) [5]: do not metabolize the epoxy group of vernolic acid to any great extent
